Data as given in PubChem BioAssay (NCI).
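Cultured in 96-well plates, cells were exposed to test compound for 48 hours across five concentrations. Here, GI50 denotes the concentration required for 50% inhibition of growth. TGI: concentration producing complete growth inhibition.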

What was measured:
Assay in all cases: inhibition of tumour cell growth, NCI panel, 48 h
EKVX NSCLC = tested on: EKVX NSCLC
LOX IMVI melanoma = tested on: LOX IMVI melanoma
SK-MEL-28 melanoma = tested on: SK-MEL-28 melanoma
UO-31 renal = tested on: UO-31 renal
OVCAR-8 ovarian = tested on: OVCAR-8 ovarian
CAKI-1 renal = tested on: CAKI-1 renal
SNB-19 CNS = tested on: SNB-19 CNS
SN12C renal = tested on: SN12C renal
SR leukemia = tested on: SR leukemia
HCT-15 colon = tested on: HCT-15 colon

Row | Compound | GI50 (EKVX NSCLC) [µM] | TGI (EKVX NSCLC) [µM] | GI50 (LOX IMVI melanoma) [µM] | TGI (LOX IMVI melanoma) [µM] | GI50 (SK-MEL-28 melanoma) [µM] | TGI (SK-MEL-28 melanoma) [µM] | GI50 (UO-31 renal) [µM] | TGI (UO-31 renal) [µM] | GI50 (OVCAR-8 ovarian) [µM] | TGI (OVCAR-8 ovarian) [µM] | GI50 (CAKI-1 renal) [µM] | TGI (CAKI-1 renal) [µM] | GI50 (SNB-19 CNS) [µM] | TGI (SNB-19 CNS) [µM] | GI50 (SN12C renal) [µM] | TGI (SN12C renal) [µM] | GI50 (SR leukemia) [µM] | TGI (SR leukemia) [µM] | GI50 (HCT-15 colon) [µM] | TGI (HCT-15 colon) [µM]
1 | COc1ccc(C2C3=C(NC(=O)C2C#N)c2ccc4ccccc4c2OCC3)cc1 (stereo not drawn) | 15.8 | 50.1 | 18.6 | 37.5 | 42.3 | > 100 | 64.1 | > 100 | 21.4 | 45.3 | 33.8 | 70.3 | 58.8 | > 100 | 23.9 | 56.5 | > 100 | > 100 | > 100 | > 100
2 | Cc1ccc(NS(=O)(=O)c2ccc(-c3cnc(C4CC4)o3)cc2)cc1 | 4.24 | 19.9 | 4.88 | 18.2 | 6.22 | 20.1 | 3.49 | 16.1 | 5.24 | 24.3 | 2.77 | 15.4 | 3.88 | 16.6 | 4.1 | 17.2 | 0.316 | 17.7 | 1.48 | 13.1
3 | CS(=O)(=O)C1S(=O)(=O)OCCOS1(=O)=O |  | > 100 |  | > 100 |  | > 100 |  | > 100 |  | > 100 |  | > 100 |  | > 100 |  | > 100 |  | > 100 |  | 
4 | CCOc1ccc(NC(=O)Nc2cc(C(C)C)ccc2C)cc1 | 8.55 | > 96.7 | 8.9 | > 100 | 8.32 | 41.8 | 4.82 | 16.9 | 3.67 | 14.8 | 6.35 | 28.2 | 10.4 | 39 | 5.15 | 24 | 0.952 | > 22.9 | 28.7 | > 100
5 | COc1ccc(-c2cc3c4c(nc5ccccc5c4c2)CC(c2cc(OC)c(OC)c(OC)c2)O3)cc1 (stereo not drawn) | 5.01 | > 100 | 1.92 | 6.81 | 2.36 | 6.62 |  |  | 2.71 | > 100 | 1.52 | 3.06 | 3.3 | 12.8 | 2.75 | > 100 | 2.08 | > 100 | 3.73 | > 100
6 | O=C(O)CSc1n[nH]c(/C=C/c2ccccc2)n1 |  | > 100 |  | > 100 |  | > 100 |  | > 100 |  | > 100 |  | > 100 |  | > 100 |  | > 100 |  | > 100 |  | > 100
7 | COC(=O)N1[C@H]2Cc3c(OC)c(C)c(OC)c(OC)c3[C@@H]1/C(=C\c1cc(OC)c(OC)c(C)c1OC)N(Cc1ccccc1)C2=O |  | > 100 |  | > 100 |  | > 100 |  | > 100 |  | > 100 |  | > 100 |  | > 100 |  | > 100 |  | 94.1 |  | 
8 | Cc1cc(N(CCCl)CCCl)ccc1C=Nc1cccnc1 | 30 | 98.9 | 12.7 | > 100 | > 77.8 | > 100 | 12.4 | > 86.7 | 28.3 | > 100 | 2.46 | > 43.1 | 59.9 | > 100 | 10.6 | > 100 | 0.695 | > 100 | 27.5 | > 100
9 | COc1ccccc1-c1cc2c3c(nc4ccccc42)C(=O)c2cccnc2-c3n1 | 14.8 | 45.4 | 2.13 | 4.89 | 18.4 | 34.7 | 11.1 | 23.3 | 8.01 | 28.6 | 13 | 27.2 | 17.4 | 33.8 | 14.5 | 30.1 | > 100 | > 100 | 3.55 | 8.62
10 | CN(C)c1c(Cl)c(=O)oc2c1ccc1nc(-c3ccccc3)sc12 |  | > 100 |  | > 100 |  | > 100 |  | > 100 |  | > 100 |  | > 100 |  | > 100 |  | > 100 |  | > 100 |  | > 100
11 | O=C(Cn1ccnc1[N+](=O)[O-])N(CCO)CCO | > 1250 | > 1250 | > 250 | > 1250 | > 1250 | > 1250 | > 1250 | > 1250 | > 1250 | > 1250 | > 1250 | > 1250 | > 1250 | > 1250 | > 1250 | > 1250 |  | > 79 | > 1250 | > 1250
12 | Cc1c(Cl)ccc2c1NC(=O)C2(O)CC(=O)c1ccc(Cl)cc1Cl (stereo not drawn) |  | > 50 |  | > 50 |  | > 50 |  | > 50 |  | > 50 |  | > 50 |  | > 50 |  | > 50 |  | 0.826 |  | > 50
13 | CC(C)(C)c1nc2c(o1)C(=Nc1ccccc1)c1ccccc1C2=O |  | 41 |  | 4.14 |  | 10.8 |  | 24.3 |  | 26.2 |  | 64.9 |  | 27.5 |  | 14.4 |  | > 100 |  | 27.9
14 | CCc1nc2c(O)ccc(O)c2nc1C |  | 31.1 |  | 29.9 |  | 34.4 |  | 33.5 |  | 23.8 |  | 33.2 |  | 33.7 |  | 29.6 |  | > 100 |  | 30.6
15 | COc1cc2c(cc1OC)C13CCN4CC5=CCOC(CC(=O)O)C(C5CC41)C3N2 (stereo not drawn) |  | > 100 |  | > 100 |  | > 100 |  | > 100 |  | > 100 |  | > 100 |  | > 100 |  | > 100 |  | > 100 |  | > 100
16 | COc1cc(OC)c(-c2cc(=O)c3c(OC)c(OC)c(OC)c(OC)c3o2)cc1OC |  | > 100 |  | > 100 |  | > 100 |  | > 100 |  | > 100 |  | > 100 |  | > 100 |  | > 100 |  | > 100 |  | > 100
17 | Cc1nc2sc(C(=O)Nc3cccc4ccccc34)c(N)c2cc1C(C)O (stereo not drawn) | 0.446 | > 50 | 0.264 | > 50 | 0.882 | > 50 | 0.268 | > 48.3 | 0.368 | > 50 | 0.192 | > 50 | 0.244 | > 50 | 0.425 | > 50 | 0.15 | > 50 | 0.189 | > 50
18 | COc1ccc(-c2cc3cccc(OC)c3c(=O)o2)cc1OC | 0.83 | 39.5 | 11.5 | > 100 | 44.4 | > 100 | 95.4 | > 100 | > 100 | > 100 | 0.094 | 32 | 41.3 | > 100 | 19.7 | > 100 | 0.436 | > 100 | 23.4 | > 100
19 | COC(=O)c1cnc2nc(N3CCOCC3)[nH]n2c1=O |  | > 100 |  | > 100 |  | > 100 |  | > 100 |  | > 100 |  | > 100 |  | > 100 |  | > 100 |  | > 100 |  | > 100
20 | O=C1C(=O)c2ccc(Br)cc2-c2cc(Br)ccc21 | > 100 | > 100 | 0.717 | 2.13 | 5.52 | > 55.5 | 5.61 | > 100 | 0.852 | 2.57 | 2.09 | 9.92 | 11 | > 100 | 2.14 | 11.2 | 0.998 | 2.92 | 1.28 | > 35
21 | CN(C(=O)C1CCCCC1)c1ccccc1I(=O)=O | 43.4 | > 100 | 40.2 | > 100 | 22.8 | 56.9 | 51 | > 100 | 74.8 | > 100 | 36.8 | > 100 | 40.3 | > 100 | 79.4 | > 100 | 13.7 | 36.1 | 23.3 | 59.2
22 | COC(=O)/C(=C/c1ccc(OC)cc1)C(C(=O)O)=C(C)C |  | > 100 |  | > 100 |  | > 100 |  | > 100 |  | > 100 |  | > 100 |  | > 100 |  | > 100 |  | > 100 |  | > 100
23 | CC(C)(C)C1CC[C@H]2c3c([nH]c4ccc(Br)cc34)[C@H]3C(=O)N(c4ccccc4)C(=O)[C@H]3[C@H]2C1 (stereo partly drawn) |  | > 100 |  | > 100 |  | > 100 |  | > 100 |  | 11.8 |  | > 100 |  | 66.9 |  | 57.3 |  | 12.1 |  | 
24 | O=c1cc2n(c(=O)[nH]1)C1OC(C(O)C1O)[C@@H]2CCO (stereo partly drawn) |  | > 100 |  | > 100 |  | > 100 |  | > 100 |  | > 100 |  | > 100 |  | > 100 |  | > 100 |  | > 100 |  | 
